Legend:
[1] = tested on: MCF-7 cells (mamma carcinoma cell line); experiment: In vitro binding/uptake of ^125I-labelled FROP-1 by MCF-7 cells; conditions: ^125I-labelled FROP-1, about 1 x 10^6 cpm per well, 1 hour, RPMI 1640 without FCS and BSA
Experimental: (§1) • (A) Mice: Female 6-week-old BALB/c nu/nu mice were obtained from Charles River WIGA (Sulzfeld, Germany) and housed in VentiRacks. For inoculation of the tumors in nude mice a Matrigel-matrix/cell suspension (5×10^6 cells) was injected subcutaneously into the anterior region of the mouse trunk. Tumors were grown up to a size of approximately 1.0 cm^3. All animals were cared for according to the German animal guidelines. • (B) Peptide synthesis and labeling: The FROP-1-Peptide (EDYELMDLLAYL) was obtained by solid-phase peptide synthesis using Fmoc-chemistry. The radiolabeling was achieved by iodination using the chloramine-T method (33). […] The solution was centrifuged 5 min at 13,000 rpm and the cleared lysate was analyzed by HPLC. • (D) In vitro binding assay: 300,000 cells were seeded into 6-well plates and cultivated for 24 hours. […] Radioactivity was determined with a gamma counter and calculated as percent applied dose per 10^6 cells. […] The organs were removed, weighed and the radioactivity was determined using an automated NaI(Tl) well counter (CobraII, Canberra Packard, Meriden, USA). The percentage of injected dose per gram of tissue was calculated.
(§2) 2 x 10^5 cells of various tumor cell lines were seeded into 6-well plates. […] The radioactivity of lysed cells was determined with a gamma counter. […]

[2] = tested on: FRO82-2 cells (follicular thyroid cancer cell line); experiment: In vitro binding/uptake of ^125I-labelled FROP-1 by FRO82-2 cells; set-up: species or system human; conditions: ^125I-labelled FROP-1, about 1 x 10^6 cpm per well, 1 hour, RPMI 1640 without FCS and BSA
Experimental: as §1, §2

[3] = tested on: HeLa cells (cervix carcinoma cell line); experiment: In vitro binding/uptake of ^125I-labelled FROP-1 by HeLa cells; conditions: ^125I-labelled FROP-1, about 1 x 10^6 cpm per well, 1 hour, RPMI 1640 without FCS and BSA
Experimental: as §1, §2

[4] = tested on: PC-3 (prostate carcinoma cell lines); experiment: In vitro binding/uptake of ^125I-labelled FROP-1 by PC-3 cells; conditions: ^125I-labelled FROP-1, about 1 x 10^6 cpm per well, 1 hour, RPMI 1640 without FCS and BSA
Experimental: as §1, §2

[5] = tested on: DU-145 (prostate carcinoma cell lines); experiment: In vitro binding/uptake of ^125I-labelled FROP-1 by DU-145 cells; conditions: ^125I-labelled FROP-1, about 1 x 10^6 cpm per well, 1 hour, RPMI 1640 without FCS and BSA
Experimental: as §1, §2

various tumor cell lines = experiment: Competition of ^125I-labelled FROP-1 uptake by unlabelled FROP-1, various tumor cell lines; format: binding; conditions: in the presence of 10^-4 unlabelled FROP-1 as a competitor, 1 hour
Experimental: as §1, §2

FRO82-2 tumor = experiment: Organ distribution in tumor-bearing nude mice; format: in vivo, Balb/c nu/nu mice; conditions: summary statement; ^131I-FROP-1 i.v., values only in Figure 6
Experimental: as §1, with “(33). The labeled peptide was purified by HPLC on a LiChrosorb RP-select B 5 µm, 250 ×x 4 mm column (Merck, Darmstadt, Germany) using TRIS/phosphate and methanol as eluents.” for “(33).”, “calculated. […]” for “calculated.”

FROP-1: novel 12 amino acid peptide from phage display, aa sequence EDYELMDLLAYL
binding of FROP-1 to MCF-7 cells [1]: efficient binding | binding of FROP-1 to FRO82-2 cells [2]: efficient binding | binding of FROP-1 to HeLa cells [3]: efficient binding | binding of FROP-1 to PC-3 [4]: efficient binding | binding of FROP-1 to DU-145 [5]: efficient binding | binding can be competed (various tumor cell lines): 95% | accumulation in tumors in vivo (FRO82-2 tumor): accumulates in vivo at/in tumors

— EP1714978A1, “Peptides useful for diagnosis and therapy of tumors” (Deutsches Krebsforschungszentrum Stiftung des öffentlichen …, priority 2005, dated 2006)
